Reference: ChEMBL document CHEMBL3390848, “Affinity selection and sequence-activity relationships of HIV-1 membrane fusion inhibitors directed at the drug-resistant variants” (Medchemcomm, 2010)
pEC50: −log10 of the molar value. Residues, ends and D or L forms follow the SMILES beside them.

Key:
[1] = tested on: Human immunodeficiency virus 1; assay: Thermal stability of HIV1 envelope glycoprotein gp41 His-tagged N-terminal heptad repeat N54-drug complex assessed as thermal unfolding transition state by measuring molar ellipticity at 4 to 90 degC by circular dichroic spectra analysis
[2] = tested on: Human immunodeficiency virus 1; assay: Binding affinity to HIV1 His-tagged N-terminal heptad repeat of envelope glycoprotein gp41 assessed as recovery of N54-drug complex after 2 hrs by LC-MS analysis; design: concentration or dose not given beside the values
[3] = tested on: Human immunodeficiency virus 1; assay: Antiviral activity against HIV1 NL4-3 harboring gp41 D36G mutant infected in human HeLa cells expressing CD4-LTR-beta-gal assessed as inhibition of viral replication after 48 hrs by MAGI assay; type: functional, organism-based

CC[C@H](C)[C@H](NC(=O)[C@H](CC(C)C)NC(=O)[C@H](CCC(=O)O)NC(=O)[C@H](CCC(=O)O)NC(=O)[C@@H](NC(=O)[C@H](CC(C)C)NC(=O)[C@H](CO)NC(=O)[C@@H](NC(=O)[C@H](Cc1ccc(O)cc1)NC(C)=O)[C@@H](C)O)[C@@H](C)CC)C(=O)N[C@@H](CCCCN)C(=O)N[C@@H](CCCCN)C(=O)N[C@H](C(=O)N[C@@H](CCC(=O)O)C(=O)N[C@@H](CCC(=O)O)C(=O)N[C@@H](CCC(N)=O)C(=O)N[C@@H](CCC(N)=O)C(=O)N[C@@H](CCCCN)C(=O)N[C@@H](CCCCN)C(=O)N[C@@H](CC(N)=O)C(=O)N[C@@H](CCC(=O)O)C(=O)N[C@@H](CCC(=O)O)C(=O)N[C@@H](CCC(=O)O)C(=O)N[C@@H](CC(C)C)C(=O)N[C@@H](CCCCN)C(=O)N[C@@H](CCCCN)C(=O)N[C@@H](CC(C)C)C(=O)N[C@@H](CCC(=O)O)C(=O)N[C@@H](CCC(=O)O)C(=O)N[C@@H](Cc1c[nH]c2ccccc12)C(=O)N[C@@H](C)C(=O)N[C@@H](CCCCN)C(=O)N[C@@H](CCCCN)C(=O)N[C@@H](Cc1c[nH]c2ccccc12)C(=O)N[C@@H](CC(N)=O)C(=O)N[C@@H](Cc1c[nH]c2ccccc12)C(=O)N[C@@H](Cc1ccccc1)C(N)=O)C(C)C (Ac-YTSLIEELIKKVEEQQKKNEEELKKLEEWAKKWNWF-NH2)
Tm [1]: 76 °C
Activity [2]: 9.4%
pEC50 [3]: 9.52

CC[C@H](C)[C@H](NC(=O)[C@H](CC(C)C)NC(=O)[C@H](CCC(=O)O)NC(=O)[C@H](CCC(=O)O)NC(=O)[C@@H](NC(=O)[C@H](CC(C)C)NC(=O)[C@H](CO)NC(=O)[C@@H](NC(=O)[C@H](Cc1ccc(O)cc1)NC(C)=O)[C@@H](C)O)[C@@H](C)CC)C(=O)N[C@@H](CCCCN)C(=O)N[C@@H](CCCCN)C(=O)N[C@@H](CO)C(=O)N[C@@H](CCC(=O)O)C(=O)N[C@@H](CCC(=O)O)C(=O)N[C@@H](CC(=O)O)C(=O)N[C@@H](CCC(N)=O)C(=O)N[C@@H](CCCCN)C(=O)N[C@@H](CCCCN)C(=O)N[C@@H](CC(N)=O)C(=O)N[C@@H](CCC(=O)O)C(=O)N[C@@H](CCC(=O)O)C(=O)N[C@@H](CCC(=O)O)C(=O)N[C@@H](CC(C)C)C(=O)N[C@@H](CCCCN)C(=O)N[C@@H](CCCCN)C(=O)N[C@@H](CC(C)C)C(=O)N[C@@H](CCC(=O)O)C(=O)N[C@@H](CCC(=O)O)C(=O)N[C@@H](Cc1c[nH]c2ccccc12)C(=O)N[C@@H](C)C(=O)N[C@@H](CCCCN)C(=O)N[C@@H](CCCCN)C(=O)N[C@@H](Cc1c[nH]c2ccccc12)C(=O)N[C@@H](CC(N)=O)C(=O)N[C@@H](Cc1c[nH]c2ccccc12)C(=O)N[C@@H](Cc1ccccc1)C(N)=O (Ac-YTSLIEELIKKSEEDQKKNEEELKKLEEWAKKWNWF-NH2)
Tm [1]: 71.4 °C
Activity [2]: 8.2%
pEC50 [3]: 8.46

CC[C@H](C)[C@H](NC(=O)[C@H](CC(C)C)NC(=O)[C@H](CCC(=O)O)NC(=O)[C@H](CCC(=O)O)NC(=O)[C@@H](NC(=O)[C@H](CC(C)C)NC(=O)[C@H](CO)NC(=O)[C@@H](NC(=O)[C@H](Cc1ccc(O)cc1)NC(C)=O)[C@@H](C)O)[C@@H](C)CC)C(=O)N[C@@H](CCCCN)C(=O)N[C@@H](CCCCN)C(=O)N[C@@H](CO)C(=O)N[C@@H](CCC(=O)O)C(=O)N[C@@H](CCC(=O)O)C(=O)N[C@@H](C)C(=O)N[C@@H](CCC(N)=O)C(=O)N[C@@H](CCCCN)C(=O)N[C@@H](CCCCN)C(=O)N[C@@H](CC(N)=O)C(=O)N[C@@H](CCC(=O)O)C(=O)N[C@@H](CCC(=O)O)C(=O)N[C@@H](CCC(=O)O)C(=O)N[C@@H](CC(C)C)C(=O)N[C@@H](CCCCN)C(=O)N[C@@H](CCCCN)C(=O)N[C@@H](CC(C)C)C(=O)N[C@@H](CCC(=O)O)C(=O)N[C@@H](CCC(=O)O)C(=O)N[C@@H](Cc1c[nH]c2ccccc12)C(=O)N[C@@H](C)C(=O)N[C@@H](CCCCN)C(=O)N[C@@H](CCCCN)C(=O)N[C@@H](Cc1c[nH]c2ccccc12)C(=O)N[C@@H](CC(N)=O)C(=O)N[C@@H](Cc1c[nH]c2ccccc12)C(=O)N[C@@H](Cc1ccccc1)C(N)=O (Ac-YTSLIEELIKKSEEAQKKNEEELKKLEEWAKKWNWF-NH2)
Tm [1]: 70.4 °C
Activity [2]: 5.6%
pEC50 [3]: 8.57

CC[C@H](C)[C@H](NC(=O)[C@H](CC(C)C)NC(=O)[C@H](CCC(=O)O)NC(=O)[C@H](CCC(=O)O)NC(=O)[C@@H](NC(=O)[C@H](CC(C)C)NC(=O)[C@H](CO)NC(=O)[C@@H](NC(=O)[C@H](Cc1ccc(O)cc1)NC(C)=O)[C@@H](C)O)[C@@H](C)CC)C(=O)N[C@@H](CCCCN)C(=O)N[C@@H](CCCCN)C(=O)N[C@H](C(=O)N[C@@H](CCC(=O)O)C(=O)N[C@@H](CCC(=O)O)C(=O)N[C@@H](CCC(N)=O)C(=O)N[C@@H](CCC(N)=O)C(=O)N[C@@H](CCCCN)C(=O)N[C@@H](CCCCN)C(=O)N[C@@H](CC(N)=O)C(=O)N[C@@H](CCC(=O)O)C(=O)N[C@@H](CCC(=O)O)C(=O)N[C@@H](CCC(=O)O)C(=O)N[C@@H](CC(C)C)C(=O)N[C@@H](CCCCN)C(=O)N[C@@H](CCCCN)C(=O)N[C@@H](CC(C)C)C(=O)N[C@@H](CCC(=O)O)C(=O)N[C@@H](CCC(=O)O)C(=O)N[C@@H](Cc1c[nH]c2ccccc12)C(=O)N[C@@H](C)C(=O)N[C@@H](CCCCN)C(=O)N[C@@H](CCCCN)C(=O)N[C@@H](Cc1c[nH]c2ccccc12)C(=O)N[C@@H](CC(N)=O)C(=O)N[C@@H](Cc1c[nH]c2ccccc12)C(=O)N[C@@H](Cc1ccccc1)C(N)=O)[C@@H](C)CC (Ac-YTSLIEELIKKIEEQQKKNEEELKKLEEWAKKWNWF-NH2)
Tm [1]: 79.7 °C
Activity [2]: 10.4%
pEC50 [3]: 9.40

CC[C@H](C)[C@H](NC(=O)[C@H](CC(C)C)NC(=O)[C@H](CCC(=O)O)NC(=O)[C@H](CCC(=O)O)NC(=O)[C@@H](NC(=O)[C@H](CC(C)C)NC(=O)[C@H](CO)NC(=O)[C@@H](NC(=O)[C@H](Cc1ccc(O)cc1)NC(C)=O)[C@@H](C)O)[C@@H](C)CC)C(=O)N[C@@H](CCCCN)C(=O)N[C@@H](CCCCN)C(=O)N[C@@H](CCCCN)C(=O)N[C@@H](CCC(=O)O)C(=O)N[C@@H](CCC(=O)O)C(=O)N[C@@H](CCC(N)=O)C(=O)N[C@@H](CCC(N)=O)C(=O)N[C@@H](CCCCN)C(=O)N[C@@H](CCCCN)C(=O)N[C@@H](CC(N)=O)C(=O)N[C@@H](CCC(=O)O)C(=O)N[C@@H](CCC(=O)O)C(=O)N[C@@H](CCC(=O)O)C(=O)N[C@@H](CC(C)C)C(=O)N[C@@H](CCCCN)C(=O)N[C@@H](CCCCN)C(=O)N[C@@H](CC(C)C)C(=O)N[C@@H](CCC(=O)O)C(=O)N[C@@H](CCC(=O)O)C(=O)N[C@@H](Cc1c[nH]c2ccccc12)C(=O)N[C@@H](C)C(=O)N[C@@H](CCCCN)C(=O)N[C@@H](CCCCN)C(=O)N[C@@H](Cc1c[nH]c2ccccc12)C(=O)N[C@@H](CC(N)=O)C(=O)N[C@@H](Cc1c[nH]c2ccccc12)C(=O)N[C@@H](Cc1ccccc1)C(N)=O (Ac-YTSLIEELIKKKEEQQKKNEEELKKLEEWAKKWNWF-NH2)
Tm [1]: 50.6 °C
Activity [2]: 0.8%
pEC50 [3]: 6.48

CC[C@H](C)[C@H](NC(=O)[C@H](CCC(=O)O)NC(=O)[C@H](CCC(=O)O)NC(=O)[C@H](CO)NC(=O)[C@H](CCCCN)NC(=O)[C@H](CCCCN)NC(=O)[C@@H](NC(=O)[C@H](CC(C)C)NC(=O)[C@H](CCC(=O)O)NC(=O)[C@H](CCC(=O)O)NC(=O)[C@@H](NC(=O)[C@H](CC(C)C)NC(=O)[C@H](CO)NC(=O)[C@@H](NC(=O)[C@H](Cc1ccc(O)cc1)NC(C)=O)[C@@H](C)O)[C@@H](C)CC)[C@@H](C)CC)C(=O)N[C@@H](CCC(N)=O)C(=O)N[C@@H](CCCCN)C(=O)N[C@@H](CCCCN)C(=O)N[C@@H](CC(N)=O)C(=O)N[C@@H](CCC(=O)O)C(=O)N[C@@H](CCC(=O)O)C(=O)N[C@@H](CCC(=O)O)C(=O)N[C@@H](CC(C)C)C(=O)N[C@@H](CCCCN)C(=O)N[C@@H](CCCCN)C(=O)N[C@@H](CC(C)C)C(=O)N[C@@H](CCC(=O)O)C(=O)N[C@@H](CCC(=O)O)C(=O)N[C@@H](Cc1c[nH]c2ccccc12)C(=O)N[C@@H](C)C(=O)N[C@@H](CCCCN)C(=O)N[C@@H](CCCCN)C(=O)N[C@@H](Cc1c[nH]c2ccccc12)C(=O)N[C@@H](CC(N)=O)C(=O)N[C@@H](Cc1c[nH]c2ccccc12)C(=O)N[C@@H](Cc1ccccc1)C(N)=O (Ac-YTSLIEELIKKSEEIQKKNEEELKKLEEWAKKWNWF-NH2)
Tm [1]: 74 °C
Activity [2]: 10.4%
pEC50 [3]: 9.10

CC[C@H](C)[C@H](NC(=O)[C@H](CC(C)C)NC(=O)[C@H](CCC(=O)O)NC(=O)[C@H](CCC(=O)O)NC(=O)[C@@H](NC(=O)[C@H](CC(C)C)NC(=O)[C@H](CO)NC(=O)[C@@H](NC(=O)[C@H](Cc1ccc(O)cc1)NC(C)=O)[C@@H](C)O)[C@@H](C)CC)C(=O)N[C@@H](CCCCN)C(=O)N[C@@H](CCCCN)C(=O)N[C@@H](CO)C(=O)N[C@@H](CCC(=O)O)C(=O)N[C@@H](CCC(=O)O)C(=O)N[C@@H](CCCCN)C(=O)N[C@@H](CCC(N)=O)C(=O)N[C@@H](CCCCN)C(=O)N[C@@H](CCCCN)C(=O)N[C@@H](CC(N)=O)C(=O)N[C@@H](CCC(=O)O)C(=O)N[C@@H](CCC(=O)O)C(=O)N[C@@H](CCC(=O)O)C(=O)N[C@@H](CC(C)C)C(=O)N[C@@H](CCCCN)C(=O)N[C@@H](CCCCN)C(=O)N[C@@H](CC(C)C)C(=O)N[C@@H](CCC(=O)O)C(=O)N[C@@H](CCC(=O)O)C(=O)N[C@@H](Cc1c[nH]c2ccccc12)C(=O)N[C@@H](C)C(=O)N[C@@H](CCCCN)C(=O)N[C@@H](CCCCN)C(=O)N[C@@H](Cc1c[nH]c2ccccc12)C(=O)N[C@@H](CC(N)=O)C(=O)N[C@@H](Cc1c[nH]c2ccccc12)C(=O)N[C@@H](Cc1ccccc1)C(N)=O (Ac-YTSLIEELIKKSEEKQKKNEEELKKLEEWAKKWNWF-NH2)
Tm [1]: 65.3 °C
Activity [2]: 4.8%
pEC50 [3]: 8.42
